Reference: patent US7378234B2, “Method for isolating hepatitis C virus peptides” (Intercell AG, priority 2002, dated 2008)
Where two headings read alike, the source gives them in different places.

Key:
HLA class I [1] = details: source data: literature reference; cited from earlier work
[2] = system: PBMC from HCV RNA-negativ therapy responders or subjects spontaneously recovered; experiment: IFN-gamma ELIspot with human PBMC from HCV therapy responders or spontaneously recovered subjects; details: directly ex vivo, donor H38; >8 significant
PBMC (in vitro primed) = experiment: IFN-gamma ELIspot after 2 rounds of in vitro priming of human PBMC; assay type: cell-based; details: donor H10
Protocol: Human PBMCs are repeatedly stimulated with antigen (peptide or peptide mixture) in the presence of IL-2 and IL-7. This leads to the selective oligoclonal expansion of antigen-specific T cells. Responses against individual epitopes can be assessed for instance by IFN-γ ELIspot assays. Freshly thawed PBMCs were cultured in 6 well plates (2-4×10^6/mL viable cells) in RPMI-1640 (GibcoBRL), 1% non-essential amino acids (GibcoBRL, cat# 11140-035), 1% Penicillin (10,000 U/ml)-Streptomycin (10,000 μg/ml) (GibcoBRL, cat#15140-122), 1% L-Glutamine (GibcoBRL), 0.1% beta-mercapto-ethanol (GibcoBRL), 1% Na-pyruvate (GibcoBRL), plus 10% Human AB serum (PAA, Linz, Austria). Peptides (10 μM each) were added to each well. rhIL-7 (Strathmann Biotech) was added at 10 ng/mL final concentration. 20-30 U/mL rhIL-2 (Strathmann Biotech) were added on day 4. On day 10, all cells were removed from plates, washed once in media (as above), and counted. For the next cycle of in vitro priming, viable cells were co-cultivated with autologous gamma irradiated (1.2 gray/min, for 20 minutes) PBMC as feeders (plated at 100,000 per well) and peptides, rh-IL-2 as described above. ELIspot was done as described above, except that 200,000 responder cells (pre-stimulated for 2 rounds of in vitro priming) were used together with 60,000 autologous irradiated […] cells.

HLA class I [3] = experiment: HLA class I coverage of hotspots and epitopes, compiled from the Examples and Tables of this specification (epitope capture, HLA-transgenic animals, in vitro stimulation of human mononuclear cells); details: source data: Examples and Tables within this specification
From the text: Thus, as even individual T-cell epitopes are not obvious within the sequence of a polypeptide, the same is even more the case for hotspots. Several radically different experimental approaches are combined according to the present invention for T-cell epitope identification, including epitope capture, HLA-transgenic animals and in vitro stimulation of human mononuclear cells. All three approaches are systematically applied on overlapping peptides spanning the antigen of interest, enabling comprehensive identification of epitopes (refer to CMV Epitope Capture patent). Upon such a comprehensive analysis, not limited to a particular HLA allele, but rather unravelling all possibly targeted epitopes within a population, epitope hotspots may become apparent. Within an antigen, only few if any sequences show characteristics of hotspots. Thus the identification of a hotspot is always a surprising event.

HLA class II = HLA class II coverage of hotspots and epitopes, compiled from the Examples and Tables of this specification (epitope capture, HLA-transgenic animals, in vitro stimulation of human mononuclear cells); details: source data: Examples and Tables within this specification

For 1754 (DYPYRLWHY) [compound 1754], the “HLA-class I coverage” value (HLA class I [1]) is listed as “Cw7”.
In the case of DYPYRLWHYPCTVNYTIFKI [Peptide 1800], the “peptide-specific IFN-gamma secreting T-cells, donor H38” value [2] is reported as 35 T-cells/10^6 PBMC, the “peptide-specific IFN-gamma secreting T-cells, donor H10, after 2 rounds of in vitro stimulation” value (PBMC (in vitro primed)) is reported as 95 T-cells/10^6 PBMC and the “HLA-class I coverage” value (HLA class I [3]) is reported as “Cw7,A24,A11”. For the same substance, the “HLA-class II coverage” value (HLA class II) was “DR7”.
